In ChEMBL document CHEMBL2429768, “Eco-friendly synthesis and antimicrobial activities of substituted-5-(1H-indol-3-yl)methylene)-2,2-dimethyl-1,3-dioxane-4,6-dione derivatives” (2013):
Converted amounts (≈) assume the structure as drawn.

What was measured:
Format in all cases: functional
Aspergillus niger [1] = assay: Antifungal activity against Aspergillus niger at 50 ug/ml after 72 hrs by agar well diffusion method; settings: read-out: DIZ
Fusarium oxysporum [2] = assay: Antifungal activity against Fusarium oxysporum at 500 ug/ml after 72 hrs by agar well diffusion method; settings: read-out: DIZ
Fusarium oxysporum [3] = assay: Antifungal activity against Fusarium oxysporum at 300 ug/ml after 72 hrs by agar well diffusion method; settings: read-out: DIZ
Fusarium oxysporum [4] = assay: Antifungal activity against Fusarium oxysporum at 200 ug/ml after 72 hrs by agar well diffusion method; settings: read-out: DIZ
Fusarium oxysporum [5] = assay: Antifungal activity against Fusarium oxysporum at 100 ug/ml after 72 hrs by agar well diffusion method; settings: read-out: DIZ
Fusarium oxysporum [6] = assay: Antifungal activity against Fusarium oxysporum at 50 ug/ml after 72 hrs by agar well diffusion method; settings: read-out: DIZ
Rhizoctonia solani [7] = assay: Antifungal activity against Rhizoctonia solani at 500 ug/ml after 72 hrs by agar well diffusion method; settings: read-out: DIZ
Rhizoctonia solani [8] = assay: Antifungal activity against Rhizoctonia solani at 300 ug/ml after 72 hrs by agar well diffusion method; settings: read-out: DIZ
Rhizoctonia solani [9] = assay: Antifungal activity against Rhizoctonia solani at 200 ug/ml after 72 hrs by agar well diffusion method; settings: read-out: DIZ
Rhizoctonia solani [10] = assay: Antifungal activity against Rhizoctonia solani at 100 ug/ml after 72 hrs by agar well diffusion method; settings: read-out: DIZ
Rhizoctonia solani [11] = assay: Antifungal activity against Rhizoctonia solani at 50 ug/ml after 72 hrs by agar well diffusion method; settings: read-out: DIZ
Bacillus subtilis [12] = assay: Antibacterial activity against Bacillus subtilis at 500 ug/ml after 24 hrs by agar well diffusion method; settings: read-out: DIZ
Bacillus subtilis [13] = assay: Antibacterial activity against Bacillus subtilis at 300 ug/ml after 24 hrs by agar well diffusion method; settings: read-out: DIZ
Bacillus subtilis [14] = assay: Antibacterial activity against Bacillus subtilis at 200 ug/ml after 24 hrs by agar well diffusion method; settings: read-out: DIZ
Bacillus subtilis [15] = assay: Antibacterial activity against Bacillus subtilis at 100 ug/ml after 24 hrs by agar well diffusion method; settings: read-out: DIZ
Bacillus subtilis [16] = assay: Antibacterial activity against Bacillus subtilis at 50 ug/ml after 24 hrs by agar well diffusion method; settings: read-out: DIZ
Staphylococcus aureus [17] = assay: Antibacterial activity against Staphylococcus aureus ATCC 6538 at 500 ug/ml after 24 hrs by agar well diffusion method; settings: ATCC 6538, 24 h, read-out: DIZ
Staphylococcus aureus [18] = assay: Antibacterial activity against Staphylococcus aureus ATCC 6538 at 300 ug/ml after 24 hrs by agar well diffusion method; settings: ATCC 6538, 24 h, read-out: DIZ
Staphylococcus aureus [19] = assay: Antibacterial activity against Staphylococcus aureus ATCC 6538 at 200 ug/ml after 24 hrs by agar well diffusion method; settings: ATCC 6538, 24 h, read-out: DIZ
Staphylococcus aureus [20] = assay: Antibacterial activity against Staphylococcus aureus ATCC 6538 at 100 ug/ml after 24 hrs by agar well diffusion method; settings: ATCC 6538, 24 h, read-out: DIZ
Escherichia coli [21] = assay: Antibacterial activity against Escherichia coli ATCC 8739 at 300 ug/ml after 24 hrs by agar well diffusion method; settings: ATCC 8739, 24 h, read-out: DIZ
Escherichia coli [22] = assay: Antibacterial activity against Escherichia coli ATCC 8739 at 200 ug/ml after 24 hrs by agar well diffusion method; settings: ATCC 8739, 24 h, read-out: DIZ
Escherichia coli [23] = assay: Antibacterial activity against Escherichia coli ATCC 8739 at 100 ug/ml after 24 hrs by agar well diffusion method; settings: ATCC 8739, 24 h, read-out: DIZ
Escherichia coli [24] = assay: Antibacterial activity against Escherichia coli ATCC 8739 at 50 ug/ml after 24 hrs by agar well diffusion method; settings: ATCC 8739, 24 h, read-out: DIZ
Klebsiella pneumoniae [25] = assay: Antibacterial activity against Klebsiella pneumoniae at 500 ug/ml after 24 hrs by agar well diffusion method; settings: read-out: DIZ
Klebsiella pneumoniae [26] = assay: Antibacterial activity against Klebsiella pneumoniae at 300 ug/ml after 24 hrs by agar well diffusion method; settings: read-out: DIZ
Klebsiella pneumoniae [27] = assay: Antibacterial activity against Klebsiella pneumoniae at 200 ug/ml after 24 hrs by agar well diffusion method; settings: read-out: DIZ
Klebsiella pneumoniae [28] = assay: Antibacterial activity against Klebsiella pneumoniae at 50 ug/ml after 24 hrs by agar well diffusion method; settings: read-out: DIZ
Escherichia coli [29] = assay: Antibacterial activity against Escherichia coli ATCC 8739 at 500 ug/ml after 24 hrs by agar well diffusion method; settings: ATCC 8739, 24 h, read-out: DIZ
Klebsiella pneumoniae [30] = assay: Antibacterial activity against Klebsiella pneumoniae at 100 ug/ml after 24 hrs by agar well diffusion method; settings: read-out: DIZ
Staphylococcus aureus [31] = assay: Antibacterial activity against Staphylococcus aureus ATCC 6538 at 50 ug/ml after 24 hrs by agar well diffusion method; settings: ATCC 6538, 24 h, read-out: DIZ
Aspergillus flavus [32] = assay: Antifungal activity against Aspergillus flavus at 50 ug/ml after 72 hrs by agar well diffusion method; settings: read-out: DIZ
Aspergillus flavus [33] = assay: Antifungal activity against Aspergillus flavus at 100 ug/ml after 72 hrs by agar well diffusion method; settings: read-out: DIZ
Aspergillus flavus [34] = assay: Antifungal activity against Aspergillus flavus after 72 hrs by agar well diffusion method
Aspergillus niger [35] = assay: Antifungal activity against Aspergillus niger after 72 hrs by agar well diffusion method
Fusarium oxysporum [36] = assay: Antifungal activity against Fusarium oxysporum after 72 hrs by agar well diffusion method
Rhizoctonia solani [37] = assay: Antifungal activity against Rhizoctonia solani after 72 hrs by agar well diffusion method
Bacillus subtilis [38] = assay: Antibacterial activity against Bacillus subtilis after 24 hrs by agar well diffusion method
Staphylococcus aureus [39] = assay: Antibacterial activity against Staphylococcus aureus ATCC 6538 after 24 hrs by agar well diffusion method; settings: ATCC 6538, 24 h
Escherichia coli [40] = assay: Antibacterial activity against Escherichia coli ATCC 8739 after 24 hrs by agar well diffusion method; settings: ATCC 8739, 24 h
Klebsiella pneumoniae [41] = assay: Antibacterial activity against Klebsiella pneumoniae after 24 hrs by agar well diffusion method
Aspergillus flavus [42] = assay: Antifungal activity against Aspergillus flavus at 500 ug/ml after 72 hrs by agar well diffusion method; settings: read-out: DIZ
Aspergillus flavus [43] = assay: Antifungal activity against Aspergillus flavus at 300 ug/ml after 72 hrs by agar well diffusion method; settings: read-out: DIZ
Aspergillus flavus [44] = assay: Antifungal activity against Aspergillus flavus at 200 ug/ml after 72 hrs by agar well diffusion method; settings: read-out: DIZ
Aspergillus niger [45] = assay: Antifungal activity against Aspergillus niger at 500 ug/ml after 72 hrs by agar well diffusion method; settings: read-out: DIZ
Aspergillus niger [46] = assay: Antifungal activity against Aspergillus niger at 300 ug/ml after 72 hrs by agar well diffusion method; settings: read-out: DIZ
Aspergillus niger [47] = assay: Antifungal activity against Aspergillus niger at 200 ug/ml after 72 hrs by agar well diffusion method; settings: read-out: DIZ
Aspergillus niger [48] = assay: Antifungal activity against Aspergillus niger at 100 ug/ml after 72 hrs by agar well diffusion method; settings: read-out: DIZ

Work on Cn1cc(C=C2C(=O)OC(C)(C)OC2=O)c2cc(Br)ccc21 yielded a zone of inhibition at 50 µg/mL (Aspergillus niger [1]) of 6 mm, a zone of inhibition at 500 µg/mL (Fusarium oxysporum [2]) of 29 mm and a zone of inhibition at 300 µg/mL (Fusarium oxysporum [3]) of 21 mm. It also gave a zone of inhibition at 200 µg/mL (Fusarium oxysporum [4]) of 16 mm, a zone of inhibition at 100 µg/mL (Fusarium oxysporum [5]) of 12 mm and a zone of inhibition at 50 µg/mL (Fusarium oxysporum [6]) of 7 mm. For the same compound, the zone of inhibition at 500 µg/mL (Rhizoctonia solani [7]) was 29 mm, the zone of inhibition at 300 µg/mL (Rhizoctonia solani [8]) was 21 mm and the zone of inhibition at 200 µg/mL (Rhizoctonia solani [9]) was 16 mm. It also gave a zone of inhibition at 100 µg/mL (Rhizoctonia solani [10]) of 12 mm, a zone of inhibition at 50 µg/mL (Rhizoctonia solani [11]) of 7 mm and a zone of inhibition at 500 µg/mL (Bacillus subtilis [12]) of 23 mm. It also gave a zone of inhibition at 300 µg/mL (Bacillus subtilis [13]) of 15 mm, a zone of inhibition at 200 µg/mL (Bacillus subtilis [14]) of 11 mm and a zone of inhibition at 100 µg/mL (Bacillus subtilis [15]) of 9.5 mm. For the same compound, the zone of inhibition at 50 µg/mL (Bacillus subtilis [16]) was 5 mm, the zone of inhibition at 500 µg/mL (Staphylococcus aureus [17]) was 25 mm and the zone of inhibition at 300 µg/mL (Staphylococcus aureus [18]) was 17 mm. For the same compound, the zone of inhibition at 200 µg/mL (Staphylococcus aureus [19]) was 13 mm, the zone of inhibition at 100 µg/mL (Staphylococcus aureus [20]) was 10 mm and the zone of inhibition at 300 µg/mL (Escherichia coli [21]) was 21 mm. The zone of inhibition at 200 µg/mL (Escherichia coli [22]) was 14 mm, the zone of inhibition at 100 µg/mL (Escherichia coli [23]) was 13.5 mm and the zone of inhibition at 50 µg/mL (Escherichia coli [24]) was 8.4 mm. For the same compound, the zone of inhibition at 500 µg/mL (Klebsiella pneumoniae [25]) was 32 mm, the zone of inhibition at 300 µg/mL (Klebsiella pneumoniae [26]) was 23 mm and the zone of inhibition at 200 µg/mL (Klebsiella pneumoniae [27]) was 18 mm. For the same compound, the zone of inhibition at 50 µg/mL (Klebsiella pneumoniae [28]) was 9 mm, the zone of inhibition at 500 µg/mL (Escherichia coli [29]) was 30 mm and the zone of inhibition at 100 µg/mL (Klebsiella pneumoniae [30]) was 14 mm. It also gave a zone of inhibition at 50 µg/mL (Staphylococcus aureus [31]) of 6 mm, a zone of inhibition at 50 µg/mL (Aspergillus flavus [32]) of 4 mm and a zone of inhibition at 100 µg/mL (Aspergillus flavus [33]) of 9 mm. For the same compound, the MIC (Aspergillus flavus [34]) was 40 µg/mL (≈ 110 µM), the MIC (Aspergillus niger [35]) was 40 µg/mL (≈ 110 µM) and the MIC (Fusarium oxysporum [36]) was 35 µg/mL (≈ 96.1 µM). It also gave an MIC (Rhizoctonia solani [37]) of 35 µg/mL (≈ 96.1 µM), an MIC (Bacillus subtilis [38]) of 30 µg/mL (≈ 82.4 µM) and an MIC (Staphylococcus aureus [39]) of 25 µg/mL (≈ 68.6 µM). The MIC (Escherichia coli [40]) was 15 µg/mL (≈ 41.2 µM), the MIC (Klebsiella pneumoniae [41]) was 15 µg/mL (≈ 41.2 µM) and the zone of inhibition at 500 µg/mL (Aspergillus flavus [42]) was 23 mm. The zone of inhibition at 300 µg/mL (Aspergillus flavus [43]) was 15 mm, the zone of inhibition at 200 µg/mL (Aspergillus flavus [44]) was 12 mm and the zone of inhibition at 500 µg/mL (Aspergillus niger [45]) was 25 mm. The zone of inhibition at 300 µg/mL (Aspergillus niger [46]) was 18 mm, the zone of inhibition at 200 µg/mL (Aspergillus niger [47]) was 14 mm and the zone of inhibition at 100 µg/mL (Aspergillus niger [48]) was 10 mm.
